These results are taken from patent publication US20250179017A1 (GUANGDONG NEWOPP BIOPHARMACEUTICALS CO., LTD., priority 2022, published 2025).

For orientation: IC50 means the point on the concentration scale where inhibition reaches its midpoint.

The target in this assay is T1, human EP2 (PTGER2) (Homo sapiens, UniProt P43116).
T1 construct: Cayman Chemical (Human EP2 Reporter Assay Kit)
T1 sequence (P43116 whole entry): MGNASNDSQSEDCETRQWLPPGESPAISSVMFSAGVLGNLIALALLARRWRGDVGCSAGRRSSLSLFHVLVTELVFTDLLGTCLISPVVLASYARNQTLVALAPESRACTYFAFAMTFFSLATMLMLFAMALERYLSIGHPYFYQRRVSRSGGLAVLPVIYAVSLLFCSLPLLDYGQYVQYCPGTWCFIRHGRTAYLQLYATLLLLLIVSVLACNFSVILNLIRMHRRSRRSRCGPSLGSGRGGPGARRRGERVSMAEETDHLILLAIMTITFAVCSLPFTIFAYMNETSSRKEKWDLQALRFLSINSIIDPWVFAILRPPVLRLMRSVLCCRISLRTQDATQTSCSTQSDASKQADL
Briefly: EP2 antagonist assay (HEK-293 CNG membrane potential cAMP assay / 293T SEAP reporter assay, PGE2-stimulated). In kind it is cell-based. To be noted: EP2 antagonist activity; concentration for 50% inhibition of signal compared to DMSO. From the text:
1. The HEK-293 CNG (Cyclic Nucleotide Gated) cell line expressing a modified CNG channel that leads to cell membrane depolarization in response to elevated intracellular cAMP levels, which can be measured using a fluorescent membrane potential dye, was engineered to express human EP2 (PTGER2) or EP4 (EP4R). The resulting cell line ACTOne™ PTGER2 or ACTOne™ EP4R as well as the fluorescent membrane potential dye were purchased from eEnzyme (Gaithersburg, MD, US) and used in this assay. Briefly, cells were plated at 1.2×10^4 cells/well in 20 μL DMEM supplemented with 2% Fetal Bovine Serum (FBS, VWR International), 1x Penicillin/Streptomycin (GenClone), 0.2 μg/mL puromycin (InvivoGen) and 50 μg/mL G418 (InvivoGen) on a 384 well plate (Greiner). The next day, cells were dye-loaded with 20 μL/well of 1x Dye-loading solution (eENZYME) following the manufacturer's instruction. After 2 hours of incubation at room temperature (RT) in the dark, a pre-read was made to obtain the background signals using CLARIOstar plate reader (BMG LABTECH, Germany) with the following filter settings: excitation=530/20 nm, emission=590/20 nm. Next, a serial dilution of compound (plus a DMSO control) were added to the plate (5 μL/well) and the reaction was incubated at RT for 15 min before adding 5 μL of PGE2 to every well for a final concentration of 5 nM. All wells were duplicated. The plate was then further incubated at RT for 30 min prior to a final read with the same machine settings. Background-subtracted signals were used to calculate IC50 values.
2. Human EP2 and EP4 Reporter Assay Kits were purchased from Cayman Chemical (Ann Arbor, MI, USA). The assay was performed following the provided User Manual. Briefly, a reverse transfection was performed by seeding 6.0×10^4 of 293T cells (ATCC) to each well of the provided Strip Plate coated with a proprietary transfection complex containing DNA constructs for expressing human EP2 or EP4 and a cAMP response element regulated secreted alkaline phosphatase (SEAP) reporter, in 200 μL DMEM supplemented with 2% FBS and incubated for 20-24 hours at 37° C. with 5% CO2. After the incubation, the culture medium was carefully removed, and the cells were replenished with 150 μL pre-warmed serum-free medium. PGE2 and test compounds were prepared together at 4x the desired final concentration, and 50 μL was added to each assigned well with the final concentration of 13 nM and 2 nM PGE2 for EP2 and EP4 assay, respectively. After 6-8 hours of incubation, 10 μL media from each well was transferred to corresponding well of a new plate, which was then sealed and incubated at 65° C. for 30 min. The plate was then cooled down to RT and 50 μL SEAP substrate was added to each well. Luminescence signal was measured using a CLARIOstar plate reader.
The IC50 value was determined as the concentration for 50% inhibition of signal compared to DMSO (A: IC50 […]; B: IC50 between 100 nM and 1,000 nM; C: IC50≥1,000 nM).
Background: Changes in cAMP serve as a functional read-out for many G protein-coupled receptors.
In turn, `N#Cc1cc(-c2cc(C(=O)NCc3ccc(C(=O)O)cc3)c3c(ccn3Cc3ccc(C(F)(F)F)cc3)c2)ccc1F` [Example 79, 4-((5-(3-cyano-4-fluorophenyl)-1-(4-(trifluoromethyl)benzyl)-1H-indole-7-carboxamido)methyl)benzoic] yielded an IC50 of 100 to 1000 nM.
With `C[C@H](NC(=O)c1cc(-c2cc(F)cc(F)c2)cc2ccn(Cc3cccc(Cl)c3)c12)c1ccc(C(=O)O)cc1` [Example 111, (S)-4-(1-(1-(3-chlorobenzyl)-5-(3,5-difluorophenyl)-1H-indole-7-carboxamido)ethyl)benzoic acid] the figure was under 100 nM; with `CN(c1ccccc1)c1ccc(C(=O)NC2(c3ccc(C(=O)O)cc3)CC2)c2c1ccn2Cc1ccc(C(F)(F)F)cc1` [Example 46, 4-(1-(4-(methyl(phenyl)amino)-1-(4-(trifluoromethyl)benzyl)-1H-indole-7-carboxamido)cyclopropyl)benzoic acid], at least 1000 nM.
The figure for `C[C@H](NC(=O)c1cc(-c2ccccc2)cc2cnn(Cc3ccc4ccccc4c3)c12)c1ccc(C(=O)O)cc1` [Example 167, (S)-4-(1-(1-(naphthalen-2-ylmethyl)-5-phenyl-1H-indazole-7-carboxamido)ethyl)benzoic acid] is under 100 nM; for `O=C(O)c1ccc(C2(NC(=O)c3ccc(-c4ccc(F)c(F)c4)c4ccn(Cc5ccc(C(F)(F)F)cc5)c34)CC2)cc1` [Example 38, 4-(1-(4-(3,4-difluorophenyl)-1-(4-(trifluoromethyl)benzyl)-1H-indole-7-carboxamido)cyclopropyl)benzoic acid] it is at least 1000 nM.
With `COc1cccc(Cn2ccc3c(Nc4ccccc4)ccc(C(=O)N[C@@H](C)c4ccc(C(=O)O)cc4)c32)c1` [Example 158, (S)-4-(1-(1-(3-methoxybenzyl)-4-(phenylamino)-1H-indole-7-carboxamido)ethyl)benzoic acid] the figure was under 100 nM; with `C[C@H](NC(=O)c1cc(-c2ccc(F)c(F)c2)cc2cnn(Cc3ccc4ccccc4c3)c12)c1ccc(C(=O)O)cc1` [Example 219, (S)-4-(1-(5-(3,4-difluorophenyl)-1-(naphthalen-2-ylmethyl)-1H-indazole-7-carboxamido)ethyl)benzoic acid], under 100 nM.
`Nc1ccccc1-c1cc(C(=O)NCc2ccc(C(=O)O)cc2)c2c(ccn2Cc2ccc(C(F)(F)F)cc2)c1` [Example 93, 4-((5-(2-aminophenyl)-1-(4-(trifluoromethyl)benzyl)-1H-indole-7-carboxamido)methyl)benzoic acid]: the IC50 was 100 to 1000 nM.
The figure for `C[C@H](NC(=O)c1cc(-c2cc(F)cc(F)c2)cc2cnn(Cc3ccc(-c4ccc(F)cc4)cc3)c12)c1ccc(C(=O)O)cc1` [Example 204, (S)-4-(1-(5-(3,5-difluorophenyl)-1-((4′-fluoro-[1,1′-biphenyl]-4-yl)methyl)-1H-indazole-7-carboxamido)ethyl)benzoic acid] is under 100 nM.
Turning to `C[C@H](NC(=O)c1cc(-c2cccc(C#N)c2)cc2ccn(Cc3cccc(Cl)c3)c12)c1ccc(C(=O)O)cc1` [Example 108, (S)-4-(1-(1-(3-chlorobenzyl)-5-(3-cyanophenyl)-1H-indole-7-carboxamido)ethyl)benzoic acid], the IC50 is under 100 nM.
With `O=C(O)c1ccc(CNC(=O)c2cc(-c3ccc(F)c(Cl)c3)cc3ccn(Cc4ccc(C(F)(F)F)cc4)c23)cc1` [Example 94, 4-((5-(3-chloro-4-fluorophenyl)-1-(4-(trifluoromethyl)benzyl)-1H-indole-7-carboxamido)methyl)benzoic] the figure was under 100 nM; with `O=C(O)c1ccc(CNC(=O)c2cc(-c3ccccc3Cl)cc3ccn(Cc4ccc(C(F)(F)F)cc4)c23)cc1` [Example 90, 4-((5-(2-chlorophenyl)-1-(4-(trifluoromethyl)benzyl)-1H-indole-7-carboxamido)methyl)benzoic acid], under 100 nM; with `O=C(O)c1ccc(CNC(=O)c2ccc(-c3ccccc3)c3ccn(Cc4ccc(C(F)(F)F)cc4)c23)cc1` [Example 26, 4-((4-phenyl-1-(4-(trifluoromethyl)benzyl)-1H-indole-7-carboxamido)methyl)benzoic acid], 100 to 1000 nM.
In the case of `NS(=O)(=O)c1cccc(-c2cc(C(=O)NCc3ccc(C(=O)O)cc3)c3c(ccn3Cc3ccc(C(F)(F)F)cc3)c2)c1` [Example 83, 4-((5-(3-sulfamoylphenyl)-1-(4-(trifluoromethyl)benzyl)-1H-indole-7-carboxamido)methyl)benzoic acid], the IC50 is under 100 nM.
The figure for `O=C(O)c1ccc(C2(NC(=O)c3cc(-c4ccc(F)cc4)cc4ccn(Cc5ccc(C(F)(F)F)cc5)c34)CC2)cc1` [Example 5, 4-(1-(5-(4-fluorophenyl)-1-(4-(trifluoromethyl)benzyl)-1H-indole-7-carboxamido)cyclopropyl)-benzoic acid] is 100 to 1000 nM; for `N#Cc1cccc(-c2ccc(C(=O)NCc3ccc(C(=O)O)cc3)c3c2ccn3Cc2ccc(C(F)(F)F)cc2)c1` [Example 22, 4-((4-(3-cyanophenyl)-1-(4-(trifluoromethyl)benzyl)-1H-indole-7-carboxamido)methyl)benzoic acid] it is 100 to 1000 nM.
`O=C(O)c1ccc(CNC(=O)c2cc(-c3ccccc3)cc3ncn(Cc4ccc(C(F)(F)F)cc4)c23)cc1` [Example 171, 4-((5-phenyl-1-(4-(trifluoromethyl)benzyl)-1H-benzo[d]imidazole-7-carboxamido)-methyl)benzoic acid] showed an IC50 of under 100 nM.
Turning to `O=C(O)c1ccc(CNC(=O)c2cc(-c3ccccc3)cc3ccn(Cc4cccc(-c5ccccc5)c4)c23)cc1` [Example 145, ((1-([1,1′-biphenyl]-3-ylmethyl)-5-phenyl-1H-indole-7-carboxamido)methyl)benzoic acid], the concentration for half-maximal inhibition (IC50) was under 100 nM.
The figure for `O=C(O)c1ccc(C2(NC(=O)c3cc(-c4cccc(C(F)(F)F)c4)cc4ccn(Cc5ccc(C(F)(F)F)cc5)c34)CC2)cc1` [Example 20, 4-(1-(1-(4-(trifluoromethyl)benzyl)-5-(3-(trifluoromethyl)phenyl)-1H-indole-7-carboxamido)cyclopropyl)benzoic acid] is at least 1000 nM.
Turning to `C[C@H](NC(=O)c1cc(-c2ccc(F)c(F)c2)cc2ccn(Cc3ccc(-c4ccc(F)cc4)cc3)c12)c1ccc(C(=O)O)cc1` [Example 215, (S)-4-(1-(5-(3,4-difluorophenyl)-1-((4′-fluoro-[1,1′-biphenyl]-4-yl)methyl)-1H-indole-7-carboxamido)ethyl)benzoic acid], the IC50 was under 100 nM.
The figure for `COc1cccc(Cn2ccc3cc(-c4ccccc4)cc(C(=O)NCc4ccc(C(=O)O)cc4)c32)c1` [Example 146, 4-((1-(3-methoxybenzyl)-5-phenyl-1H-indole-7-carboxamido)methyl)benzoic acid] is under 100 nM.
With `O=C(O)c1ccc(CNC(=O)c2cc(-c3ccc(F)cc3)cc3ccn(Cc4ccc(-c5ccccc5)cc4)c23)cc1` [Example 148, 4-((1-([1,1′-biphenyl]-4-ylmethyl)-5-(4-fluorophenyl)-1H-indole-7-carboxamido)methyl)benzoic acid] the figure was under 100 nM; with `N#Cc1cccc(-c2cc(C(=O)NC3(c4ccc(C(=O)O)cc4)CC3)c3c(ccn3Cc3cccc(Cl)c3)c2)c1` [Example 206, 4-(1-(1-(3-chlorobenzyl)-5-(3-cyanophenyl)-1H-indole-7-carboxamido)cyclopropyl)benzoic acid], under 100 nM; with `N#Cc1cccc(-c2cc(C(=O)NC3(c4ccc(C(=O)O)cc4)CC3)c3c(ccn3Cc3cccc(C(F)(F)F)c3)c2)c1` [Example 133, 4-(1-(5-(3-cyanophenyl)-1-(3-(trifluoromethyl)benzyl)-1H-indole-7-carboxamido)cyclopropyl)benzoic acid], 100 to 1000 nM.
With `O=C(O)c1ccc(CNC(=O)c2cc(-c3ccc(F)c(F)c3)cc3cnn(Cc4ccc(-c5ccccc5)cc4)c23)cc1` [Example 193, 4-((1-([1,1′-biphenyl]-4-ylmethyl)-5-(3,4-difluorophenyl)-1H-indazole-7-carboxamido)methyl)benzoic acid] the figure was under 100 nM.
